The test system of data set [1] is Micrococcus luteus ATCC 10240. Description: plate diffusion method, antibacterial activity and MIC. It is filed as cell-based. The protocol:
To verify antibacterial activity, the plate diffusion method is used as described in the pharmacopeia: • A quantity of the sample is weighed and slowly dissolved in 25 ml of methanol R • A quantity of 0.05 M phosphate buffer at pH 7.0 is added so as to obtain the following concentrations: 50 μg/ml, 20 μg/ml, 10 μg/ml and 5 μg/ml • Plates were prepared with appropriate culture medium (agar thickness approximately 2-5 mm) inoculated with a suspension of Micrococcus luteus ATCC 10240, Staphylococcus aureus ATCC 6538 and Escherichia coli ATCC 8739. • 0.1 ml of the different concentrations of each sample were dispensed into the wells formed in the agar plates • The plates were held for 1-2 hours at ambient temperature to allow diffusion of the sample and then incubated at 35-39° C. for not less than 18 hours. • The diameters of the inhibition halos of the compounds were measured with a gauge and compared with those of the reference substance, the results being expressed as percentages.

The subject of data set [2] is cell line DPX2. Description: viability and morphology of the cells by optical microscopy.
Description: (§1) The activity of the new rifamycins is expressed as a ratio between luciferase activity in cells treated with the tested substance and that of the cells treated with DMSO. The viability and morphology of the cells are analyzed by optical microscopy.
Data set [3] concerns the target T1, human receptor PXR (Homo sapiens, UniProt O75469).
T1 sequence (O75469 1-434): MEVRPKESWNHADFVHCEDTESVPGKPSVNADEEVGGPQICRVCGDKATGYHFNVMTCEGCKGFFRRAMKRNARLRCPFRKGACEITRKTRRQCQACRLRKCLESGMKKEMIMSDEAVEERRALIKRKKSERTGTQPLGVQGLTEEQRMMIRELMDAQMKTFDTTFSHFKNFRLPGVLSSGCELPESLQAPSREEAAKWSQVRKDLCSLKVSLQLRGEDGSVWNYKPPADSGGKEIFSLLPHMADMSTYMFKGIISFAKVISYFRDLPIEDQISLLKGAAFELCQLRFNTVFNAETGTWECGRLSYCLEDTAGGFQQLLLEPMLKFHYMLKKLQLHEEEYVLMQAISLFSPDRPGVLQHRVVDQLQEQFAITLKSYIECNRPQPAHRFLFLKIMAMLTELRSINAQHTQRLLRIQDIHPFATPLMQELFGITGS
Description: activation of the PXR receptor: CYP3A4 luciferase reporter induction in cell line DPX2. Conditions: for Mean RLU: cell line DPX2P29; for Induction above DMSO: ratio of luciferase activity to DMSO-treated cells.
Description: as §1

Data set [4] addresses T1, human receptor PXR. Conditions: 10 μM.
Description: as §1
Data set [5] concerns cell line DPX2. As to conditions: human, 10 μM.
Description: as §1
[6] abbreviates: Table A, 5 μg/ml, inhibition halo vs reference standard (rifamycin S for SX1, rifampicin for SX4 and SX5).
Where [7] appears, read: Table A, 10 μg/ml, inhibition halo vs reference standard (rifamycin S for SX1, rifampicin for SX4 and SX5).
[8] abbreviates: Table A, 50 μg/ml, inhibition halo vs reference standard (rifamycin S for SX1, rifampicin for SX4 and SX5).
Setting [9] is: Table B, 5 μg/ml, compared with standard rifampicin.
Where [10] appears, read: Table B, 10 μg/ml, compared with standard rifampicin.
Where [11] appears, read: Table B, 20 μg/ml, compared with standard rifampicin.
Where [12] appears, read: Table B, 50 μg/ml, compared with standard rifampicin.

The source of these data is patent US20100168129A1, “DRUGS WITH ANTICHOLESTATIC ACTIVITY” (priority 2007, published 2010).

SMILES strings stand for the structures. Read-outs that look alike come from different tables or passages of the source.

`COC1CCOC2(C)Oc3c(C)c(O)c4c(O)c(c(C=NN5CCN(C)CC5)c(O)c4c3C2=O)NC(=O)C(C)CCCC(C)C(O)C(C)C(O)C(C)C(OC(C)=O)C1C` (centres unmarked) [Example 1, 3-(4′-methyl-1′-piperazinyl-iminomethyl)-16,17,18,19,28,29-hexahydrorifamycin SV]: the percentage antibacterial activity in data set [1] (setting [6]) stood at 0%; in data set [1] (setting [7]), 0%; in data set [1] (setting [8]), 42%. Moreover, the “Cell appearance**: cell confluence (%)” value in data set [2] (5 μM), in data set [2] (10 μM), in data set [2] (20 μM) and in data set [2] (40 μM) was 30% each time. Further, the “Cell appearance**: morphology” value in data set [2] (5 μM), in data set [2] (10 μM), in data set [2] (20 μM) and in data set [2] (40 μM) was “MCM” in each case. In addition, the “Mean RLU” value was 8698 RLU in data set [3] (5 μM), 12069 RLU in data set [3] (10 μM), 12918 RLU in data set [3] (20 μM) and 14636 RLU in data set [3] (40 μM). The “Induction above DMSO” value in data set [3] (5 μM) is given as 39.0; in data set [3] (10 μM), 54.1; in data set [3] (20 μM) it was 57.9; in data set [3] (40 μM), 65.6.

As for `COC1CCOC2(C)Oc3c(C)c(O)c4c(O)c(c(C=NN5CCN(C)CC5)c(O)c4c3C2=O)NC(=O)C(C)CCCC(C)C2OC(C)(C)OC(C2C)C(C)C(OC(C)=O)C1C` (centres unmarked) [Example 3, 3-(4′-methyl-1′-piperazinyl-iminomethyl)-21,23-O-isopropylidene-16,17,18,19,28,29-hexahydrorifamycin SV], the “MIC (Minimum Inhibitory Concentration)” value in data set [1] (Table A) is more than 50 µg/mL. The percentage antibacterial activity in data set [1] (setting [6]), in data set [1] (setting [7]) and in data set [1] (setting [8]) was 0% in each case. The “Cell appearance**: cell confluence (%)” value in data set [2] (5 μM) is listed as 30%; in data set [2] (10 μM), 30%; in data set [2] (20 μM) it was 20%; in data set [2] (40 μM), 20%. In addition, the “Cell appearance**: morphology” value in data set [2] (5 μM), in data set [2] (10 μM) and in data set [2] (20 μM) was “MCM” in each case. Besides, the “Mean RLU” value is given as 8052 RLU in data set [3] (5 μM), 10848 RLU in data set [3] (10 μM), 7125 RLU in data set [3] (20 μM) and 4243 RLU in data set [3] (40 μM). For the same compound, the “Induction above DMSO” value in data set [3] (5 μM) came out at 36.1; in data set [3] (10 μM) it was 48.6; in data set [3] (20 μM) it was 32.0; in data set [3] (40 μM) it was 19.0.

With `CCN1CCN(N=Cc2c3c(O)c4c(O)c(C)c5c(c4c2O)C(=O)C(C)(OCCC(OC)C(C)C(OC(C)=O)C(C)C(O)C(C)C(O)C(C)CCCC(C)C(=O)N3)O5)CC1` (centres unmarked) [Example 6, 3-(4′-ethyl-1′-piperazinyl-iminomethyl)-16,17,18,19,28,29-hexahydrorifamycin SV], the percentage antibacterial activity in data set [1] (setting [9]) was 0%; in data set [1] (setting [10]) it was 0%; in data set [1] (setting [11]), 0%; in data set [1] (setting [12]) it was 39%.

Regarding `CCOCCN1CCN(N=Cc2c3c(O)c4c(O)c(C)c5c(c4c2O)C(=O)C(C)(OCCC(OC)C(C)C(OC(C)=O)C(C)C(O)C(C)C(O)C(C)CCCC(C)C(=O)N3)O5)CC1` (centres unmarked) [Example 12, 3-[4′-(2-ethoxyethyl)-1′-piperazinyl-iminomethyl]-16,17,18,19,28,29-hexahydrorifamycin SV], in data set [1] (Table B), the “MIC (Minimum Inhibitory Concentration)” value is more than 50 µg/mL. In addition, the percentage antibacterial activity in data set [1] (setting [9]), in data set [1] (setting [10]), in data set [1] (setting [11]) and in data set [1] (setting [12]) was 0% throughout.

For the compound `COC1CCOC2(C)Oc3c(C)c(O)c4c(O)c(c(C=NN5CCN(C(C)C)CC5)c(O)c4c3C2=O)NC(=O)C(C)CCCC(C)C(O)C(C)C(O)C(C)C(OC(C)=O)C1C` (centres unmarked) [Example 15, 3-(4′-isopropyl-1′-piperazinyl-iminomethyl)-16,17,18,19,28,29-hexahydrorifamycin SV], in data set [1] (Table B), the “MIC (Minimum Inhibitory Concentration)” value is more than 50 µg/mL. The percentage antibacterial activity in data set [1] (setting [9]), in data set [1] (setting [10]), in data set [1] (setting [11]) and in data set [1] (setting [12]) was 0% each time.

As to `CO[C@H]1/C=C/O[C@@]2(C)Oc3c(C)c(O)c4c(c3C2=O)C(=O)C(N2CCOCC2)=C(NC(=O)/C(C)=C\C=C\[C@H](C)[C@@H]2OC(C)(C)O[C@@H]([C@@H](C)[C@H](OC(C)=O)[C@@H]1C)[C@@H]2C)C4=O` [Example 23, 3-morpholine-21,23 O-isopropylidenerifamycin S, reference compound], the “MIC (Minimum Inhibitory Concentration)” value in data set [1] (Table A) was less than 5 µg/mL. The values for the percentage antibacterial activity in data set [1] (setting [6]), in data set [1] (setting [7]) and in data set [1] (setting [8]) were 39%, 40% and 69%, respectively. The “Cell appearance**: cell confluence (%)” value in data set [2] (5 μM) is 30%; in data set [2] (10 μM), 30%; in data set [2] (20 μM), 10%; in data set [2] (40 μM), 0%. Moreover, in data set [2] (5 μM), the “Cell appearance**: morphology” value was “MCM”. The “Mean RLU” value in data set [3] (5 μM) amounted to 6537 RLU; in data set [3] (10 μM) it was 7869 RLU; in data set [3] (20 μM), 4738 RLU; in data set [3] (40 μM), 396 RLU. The “Induction above DMSO” value in data set [3] (5 μM) is on record as 29.3; in data set [3] (10 μM), 35.3; in data set [3] (20 μM) it was 21.2; in data set [3] (40 μM), 1.8. For the same compound, in data set [3] (compared with the compounds of the invention), the “PXR activation, comparison in words” value is given as “decidedly less active”.

For the compound `CC[C@H](C)C(=O)O[C@H]1CCC=C2C=C[C@H](C)[C@H](CC[C@@H]3C[C@@H](O)CC(=O)O3)[C@H]21` [Mevastafin, Mevastatin], the “Mean RLU” value in data set [4] turned out to be 758 RLU. In addition, in data set [5], the “Cell appearance**: cell confluence (%)” value is reported as 30% and the “Cell appearance**: morphology” value is “MCM”. Also, in data set [3] (10 μM), the “Induction above DMSO” value stood at 3.4.
